# In patent US9555022B2, “Substituted triazolopyridines” (Bayer Intellectual Property GmbH, priority 2010, dated 2017):
# Molecular target: human full length recombinant Mps-1 kinase (Homo sapiens (Human), UniProt P33981)
# Test: Mps-1 Kinase Assay (TR-FRET)
# Format: biochemical
# Settings: 10 μM ATP, 1 μM biotinylated peptide substrate, 60 min at 22° C., read-out: Mps-1 Inhibition, IC50 in M
# Summary of the method: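 Compounds were tested against recombinant full-length Mps-1 bearing an N-terminal GST tag, about 1 nM final, with a biotinylated amide-capped peptide as substrate. Detection reagents were then bound for 1 h at 22° C and the product read by TR-FRET.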
# human full length recombinant Mps-1 kinase, sequence (P33981 whole entry): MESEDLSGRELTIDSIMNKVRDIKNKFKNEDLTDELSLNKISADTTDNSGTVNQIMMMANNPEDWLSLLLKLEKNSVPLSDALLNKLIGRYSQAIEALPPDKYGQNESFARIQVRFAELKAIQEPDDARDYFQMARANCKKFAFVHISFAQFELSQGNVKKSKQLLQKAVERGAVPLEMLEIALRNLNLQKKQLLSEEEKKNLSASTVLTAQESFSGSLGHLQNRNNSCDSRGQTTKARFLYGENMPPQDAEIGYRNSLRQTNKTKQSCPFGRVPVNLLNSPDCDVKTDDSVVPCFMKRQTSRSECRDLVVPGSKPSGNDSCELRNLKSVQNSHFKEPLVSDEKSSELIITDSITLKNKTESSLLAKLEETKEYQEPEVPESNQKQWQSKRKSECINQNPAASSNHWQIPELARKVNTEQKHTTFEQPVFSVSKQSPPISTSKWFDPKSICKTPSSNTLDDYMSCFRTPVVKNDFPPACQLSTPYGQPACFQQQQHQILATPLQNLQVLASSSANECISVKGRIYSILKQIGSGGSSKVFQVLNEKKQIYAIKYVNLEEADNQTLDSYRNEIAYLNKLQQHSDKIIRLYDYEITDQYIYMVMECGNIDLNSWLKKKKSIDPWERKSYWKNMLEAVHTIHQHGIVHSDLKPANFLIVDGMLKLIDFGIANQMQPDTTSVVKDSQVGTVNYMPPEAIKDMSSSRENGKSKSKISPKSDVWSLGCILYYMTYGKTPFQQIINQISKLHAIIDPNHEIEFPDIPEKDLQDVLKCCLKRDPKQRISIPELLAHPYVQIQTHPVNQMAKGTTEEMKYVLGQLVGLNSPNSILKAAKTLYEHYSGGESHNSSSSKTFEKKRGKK
row,Compound,IC50 [nM]
1,"COc1ccc(C(=O)N2CCOCC2)cc1Nc1nc2ccc(-c3ccc(C(=O)NCc4ccc(F)cc4)cc3)cn2n1 [Example 04.32, N-(4-fluorobenzyl)-4-(2-{[2-methoxy-5-(morpholin-4-ylcarbonyl)phenyl]amino}[,2]-triazolo[1,5-a]pyridin-6-yl)benzamide]",≤ 1
2,"Cc1nc(N2CCOCC2)ccc1Nc1nc2ccc(-c3ccc(C(=O)NCc4ccc(F)cc4)cc3)cn2n1 [Example 04.33, N-(4-fluorobenzyl)-4-(2-{[2-methyl-6-(morpholin-4-yl)pyridin-3-yl]amino}[,2]triazolo[1,5-a]pyridin-6-yl)benzamide]",≤ 1
3,"Cc1nc(N2CCCC2)ccc1Nc1nc2ccc(-c3ccc(C(=O)NCc4ccc(F)cc4)cc3)cn2n1 [Example 04.34, N-(4-fluorobenzyl)-4-(2-{[2-methyl-6-(pyrrolidin-1-yl)pyridin-3-yl]amino}[,2]triazolo[1,5-a]pyridin-6-yl)benzamide]",≤ 1
4,"COc1cc(C(=O)N2CC(F)C2)ccc1Nc1nc2ccc(-c3ccc(C(=O)NCc4ccc(F)cc4)cc3)cn2n1 [Example 04.35, 4-[2-({4-[(3-fluoroazetidin-1-yl)carbonyl]-2-methoxyphenyl}amino)[,2]triazolo[1,5-a]pyridin-6-yl]-N-(4-fluorobenzyl)benzamide]",≤ 1
5,"COc1cc(C(=O)N2CCOCC2)ccc1Nc1nc2ccc(-c3ccc(C(=O)NCc4ccc(Cl)cc4)cc3)cn2n1 [Example 05.01, N-(4-chlorobenzyl)-4-(2-{[2-methoxy-4-(morpholin-4-ylcarbonyl)phenyl]amino}[,2]-triazolo[1,5-a]pyridin-6-yl)benzamide]",≤ 1
6,"COc1cc(C(=O)N2CCOCC2)ccc1Nc1nc2ccc(-c3ccc(C(=O)NCc4ccc(C)cc4)cc3)cn2n1 [Example 05.02, 4-(2-{[2-methoxy-4-(morpholin-4-ylcarbonyl)phenyl]amino}[,2]-triazolo[1,5-a]pyridin-6-yl)-N-(4-methylbenzyl)benzamide]",≤ 1
7,"COc1cc(C(=O)N2CCOCC2)ccc1Nc1nc2ccc(-c3ccc(C(=O)NCc4ccc(F)cc4)c(F)c3)cn2n1 [Example 06.01, 2-fluoro-N-(4-fluorobenzyl)-4-(2-{[2-methoxy-4-(morpholin-4-ylcarbonyl)phenyl]amino}[,2]-triazolo[1,5-a]pyridin-6-yl)benzamide]",≤ 1
8,"COc1cc(CN2CCOCC2)ccc1Nc1nc2ccc(-c3ccc(C(=O)NCc4ccc(F)cc4)c(F)c3)cn2n1 [Example 06.02, 2-fluoro-N-(4-fluorobenzyl)-4-(2-{[2-methoxy-4-(morpholin-4-ylmethyl)phenyl]amino}[,2]-triazolo[1,5-a]pyridin-6-yl)benzamide]",≤ 1
9,"COc1cc(C(=O)N2CCOCC2)ccc1Nc1nc2ccc(-c3ccc(C(=O)NCc4ccc(F)cc4)c(C)c3)cn2n1 [Example 07.01, N-(4-fluorobenzyl)-4-(2-{[2-methoxy-4-(morpholin-4-ylcarbonyl)phenyl]amino}[,2]-triazolo[1,5-a]pyridin-6-yl)-2-methylbenzamide]",≤ 1
10,"COc1cc(N2CCOC2=O)ccc1Nc1nc2ccc(-c3ccc(C(=O)NCc4ccc(F)cc4)c(C)c3)cn2n1 [Example 07.02, N-(4-fluorobenzyl)-4-(2-{[2-methoxy-4-(2-oxo-1,3-oxazolidin-3-yl)phenyl]amino}[,2]-triazolo[1,5-a]pyridin-6-yl)-2-methylbenzamide]",1.1
11,"COc1cc(C(=O)N2CCOCC2)ccc1Nc1nc2ccc(-c3ccc(C(=O)NCc4ccc(F)cc4)c(Cl)c3)cn2n1 [Example 08.01, 2-chloro-N-(4-fluorobenzyl)-4-(2-{[2-methoxy-4-(morpholin-4-ylcarbonyl)phenyl]amino}[,2]-triazolo[1,5-a]pyridin-6-yl)benzamide]",≤ 1
12,"COc1cc(C(=O)N2CCOCC2)ccc1Nc1nc2ccc(-c3ccc(C(=O)NCc4ccc(F)cc4)c(OC)c3)cn2n1 [Example 09.01, N-(4-fluorobenzyl)-2-methoxy-4-(2-{[2-methoxy-4-(morpholin-4-ylcarbonyl)phenyl]amino}[,2]-triazolo[1,5-a]pyridin-6-yl)benzamide]",≤ 1
13,"COc1cc(C(=O)N2CCOCC2)ccc1Nc1nc2ccc(-c3ccc(NC(=O)Cc4ccc(F)cc4)c(F)c3)cn2n1 [Example 10.01, N-[2-fluoro-4-(2-{[2-methoxy-4-(morpholin-4-ylcarbonyl)phenyl]amino}[,2]-triazolo[1,5-a]pyridin-6-yl)phenyl]-2-(4-fluorophenyl)acetamide]",≤ 1
14,"COc1cc(C(=O)N2CCOCC2)ccc1Nc1nc2ccc(-c3ccc(NC(=O)Cc4ccc(F)cc4)nc3)cn2n1 [Example 11.01, 2-(4-fluorophenyl)-N-[5-(2-{[2-methoxy-4-(morpholin-4-ylcarbonyl)phenyl]amino}[,2]triazolo[1,5-a]pyridin-6-yl)pyridin-2-yl]acetamide]",1.62
15,"CCOc1cc(C(=O)N2CCOCC2)ccc1Nc1nc2ccc(-c3ccc(NC(=O)Cc4ccc(F)cc4)nc3)cn2n1 [Example 11.02, N-[5-(2-{[2-ethoxy-4-(morpholin-4-ylcarbonyl)phenyl]amino}[,2]triazolo[1,5-a]pyridin-6-yl)pyridin-2-yl]-2-(4-fluorophenyl)acetamide]",≤ 1
16,"COc1cc(N2CCOC2=O)ccc1Nc1nc2ccc(-c3ccc(C(=O)NCc4ccc(F)cc4F)c(C)c3)cn2n1 [Example 12.01, N-(2,4-difluorobenzyl)-4-(2-{[2-methoxy-4-(2-oxo-1,3-oxazolidin-3-yl)phenyl]amino}[,2]triazolo[1,5-a]pyridin-6-yl)-2-methylbenzamide]",≤ 1
